Reference: PMC3700073, “Synthesis and Biological Activity of New Thiopyrano[2,3-d]thiazoles Containing a Naphthoquinone Moiety” (Scientia Pharmaceutica, 2013)
Like-named read-outs stand apart in the source and are kept apart here.

Legend:
CAKI-1 (renal cancer) = test: NCI five-dose assay; type: cell-based; conditions: Homo sapiens, CAKI-1, CAKI-1, renal cancer
SF-539 (CNS cancer) = test: NCI five-dose assay; type: cell-based; conditions: Homo sapiens, SF-539, SF-539, CNS cancer
M14 (melanoma) [1] = test: NCI single-concentration screen; type: cell-based, human; conditions: 10^−5 M
HT29 (colon cancer) = test: NCI five-dose assay; type: cell-based; conditions: Homo sapiens, HT-29, HT29, colon cancer
T-47D (breast cancer) = test: NCI five-dose assay; type: cell-based; conditions: Homo sapiens, T47D
60 cancer cell lines [2] = conditions: over the cell line panel
MALME-3M (melanoma) [3] = test: NCI single-concentration screen; type: cell-based, human; conditions: 10^−5 M
MCF-7 (breast cancer) = test: NCI five-dose assay; type: cell-based; conditions: Homo sapiens, MCF7, MCF-7, breast cancer
ACHN (renal cancer) = test: NCI five-dose assay; type: cell-based; conditions: Homo sapiens
OVCAR-8 (ovarian cancer) = test: NCI five-dose assay; type: cell-based; conditions: Homo sapiens, OVCAR-8, OVCAR-8, ovarian cancer
NCI-H460 (NSCL cancer) = test: NCI five-dose assay; type: cell-based; conditions: Homo sapiens
[4] = test system: Mycobacterium tuberculosis H37Rv strain (ATCC 27294); test: Antimycobacterial pre-screening at 6.25 μg/mL (BACTEC 460 radiometric system); type: cell-based; conditions: M. tuberculosis H37Rv; for inhibition at 6.25 µg/mL: 6.25 μg/mL; for MIC90: pre-screening, read-out: Estimation of MIC90
SW-620 (colon cancer) = test: NCI five-dose assay; type: cell-based; conditions: Homo sapiens, SW-620, SW-620, colon cancer
SNB-75 (CNS cancer) = test: NCI five-dose assay; type: cell-based; conditions: Homo sapiens, SNB-75, SNB-75, CNS cancer
OVCAR-4 (ovarian cancer) = test: NCI five-dose assay; type: cell-based; conditions: Homo sapiens, OVCAR-4, OVCAR-4, ovarian cancer
MALME-3M (melanoma) [5] = test: NCI five-dose assay; type: cell-based; conditions: Homo sapiens
UACC-62 (melanoma) = test: NCI five-dose assay; type: cell-based; conditions: Homo sapiens, UACC-62, UACC-62, melanoma
A498 (renal cancer) = test: NCI five-dose assay; type: cell-based; conditions: Homo sapiens
TK-10 (renal cancer) = test: NCI five-dose assay; type: cell-based; conditions: Homo sapiens, TK-10, TK-10, renal cancer
60 cancer cell lines [6] = test: cells; conditions: Homo sapiens
COLO 205 (colon cancer) = test: NCI five-dose assay; type: cell-based; conditions: Homo sapiens, COLO 205, COLO 205, colon cancer
SK-MEL-5 (melanoma) = test: NCI single-concentration screen; type: cell-based, human; conditions: 10^−5 M
SNB-19 (CNS cancer) = test: NCI five-dose assay; type: cell-based; conditions: Homo sapiens, SNB-19, SNB-19, CNS cancer
CCRF-CEM (leukemia) = test: NCI five-dose assay; type: cell-based; conditions: Homo sapiens
KM12 (colon cancer) = test: NCI five-dose assay; type: cell-based; conditions: Homo sapiens
NCI-H522 (NSCL cancer) = test: NCI five-dose assay; type: cell-based; conditions: Homo sapiens
60 cancer cell lines [7] = test: NCI single-concentration screen, 60 cancer cell lines; type: cell-based, human; conditions: single concentration 10^−5 M
M14 (melanoma) [8] = test: NCI five-dose assay; type: cell-based; conditions: Homo sapiens
SF-295 (CNS cancer) [9] = test: NCI five-dose assay; type: cell-based; conditions: Homo sapiens, SF-295, SF-295, CNS cancer
DU-145 (prostate cancer) = test: NCI five-dose assay; type: cell-based; conditions: Homo sapiens, DU-145, DU-145, prostate cancer
[10] = test system: MDA-MB-468 (breast cancer); test: NCI five-dose assay; type: cell-based; conditions: Homo sapiens, repeated testing
SF-295 (CNS cancer) [11] = test: NCI single-concentration screen; type: cell-based, human; conditions: 10^−5 M
[12] = test system: MDA-MB-435 (breast cancer); test: NCI single-concentration screen; type: cell-based, human; conditions: 10^−5 M
(melanoma) = test: NCI single-concentration screen; type: cell-based, human; conditions: SK-MEL-25 (melanoma), 10^−5 M
HCC-2998 (colon cancer) = test: NCI five-dose assay; type: cell-based; conditions: Homo sapiens, HCC 2998, HCC-2998, colon cancer
[13] = read-out: GI50 MG_MID, over the cell line panel
[14] = read-out: GI50 Range (min – max), over the cell line panel
[15] = read-out: LC50 MG_MID, over the cell line panel
[16] = read-out: LC50 Range (min – max), over the cell line panel

COc1ccc(C2C3=C(Sc4[nH]c(=O)sc42)C(=O)c2ccccc2C3=O)cc1OC (stereo not shown) [Compound 4f, 11-(3,4-Dimethoxyphenyl)-3,11-dihydro-2H-benzo[6,7]thiochromeno[2,3-d][1,3]thiazole-2,5,10-trione]
GI50 (CAKI-1 (renal cancer)): 11.2 µM | GI50 (SF-539 (CNS cancer)): 3.17 µM | Growth % of the most sensitive cell line (M14 (melanoma) [1]): −80.36% | GI50 (HT29 (colon cancer)): 3.15 µM | GI50 (T-47D (breast cancer)): 3.42 µM | TGI MG_MID (60 cancer cell lines [2]): 14.79 µM | Growth % of the most sensitive cell line (MALME-3M (melanoma) [3]): −66.70% | GI50 (MCF-7 (breast cancer)): 2.25 µM | GI50 (ACHN (renal cancer)): 9.24 µM | GI50 (OVCAR-8 (ovarian cancer)): 4.02 µM | GI50 (NCI-H460 (NSCL cancer)): 2.18 µM | inhibition at 6.25 µg/mL [4]: 0% | MIC90 [4]: > 6.25 µg/mL | GI50 (SW-620 (colon cancer)): 3.96 µM | GI50 (SNB-75 (CNS cancer)): 6.64 µM | GI50 (OVCAR-4 (ovarian cancer)): 2.48 µM | GI50 (MALME-3M (melanoma) [5]): 2.12 µM | GI50 (UACC-62 (melanoma)): 2.21 µM | GI50 (A498 (renal cancer)): 4.91 µM | GI50 (TK-10 (renal cancer)): 17.6 µM | GI50 (60 cancer cell lines [6]; [13]): 4.19 µM | GI50 (60 cancer cell lines [6]; [14]): 1.26 to 17.7 µM | CC50 (60 cancer cell lines [6]; [15]): 47.9 µM | CC50 (60 cancer cell lines [6]; [16]): 5.34 to 93 µM | GI50 (COLO 205 (colon cancer)): 3.37 µM | Growth % of the most sensitive cell line (SK-MEL-5 (melanoma)): −96.40% | GI50 (SNB-19 (CNS cancer)): 4.49 µM | GI50 (CCRF-CEM (leukemia)): 4.38 µM | GI50 (KM12 (colon cancer)): 5.99 µM | GI50 (NCI-H522 (NSCL cancer)): 7.91 µM | Mean growth % (60 cancer cell lines [7]): 1.77% | GI50 (M14 (melanoma) [8]): 2.67 µM | GI50 (SF-295 (CNS cancer) [9]): 3.77 µM | GI50 (DU-145 (prostate cancer)): 1.68 µM

COc1cc(C2C3=C(Sc4[nH]c(=O)sc42)C(=O)c2ccccc2C3=O)ccc1O (stereo not shown) [Compound 4i, 11-(4-Hydroxy-3-methoxyphenyl)-3,11-dihydro-2H-benzo[6,7]thiochromeno[2,3-d]-[1,3]thiazole-2,5,10-trione]
GI50 (CAKI-1 (renal cancer)): 1.5 µM | GI50 (CAKI-1 (renal cancer); repeated testing): 2.92 µM | GI50 (SF-539 (CNS cancer)): 3.26 µM | GI50 (SF-539 (CNS cancer); repeated testing): 3.46 µM | GI50 [10]: 1.75 µM | GI50 (HT29 (colon cancer)): 2.35 µM | GI50 (HT29 (colon cancer); repeated testing): 2.02 µM | GI50 (T-47D (breast cancer)): 2.56 µM | TGI MG_MID (60 cancer cell lines [2]): 10.96 µM | TGI MG_MID (60 cancer cell lines [2]; repeated testing): (8.51) μM | GI50 (MCF-7 (breast cancer)): 1.07 µM | GI50 (MCF-7 (breast cancer); repeated testing): 2.26 µM | Growth % of the most sensitive cell line (SF-295 (CNS cancer) [11]): −50.25% | GI50 (ACHN (renal cancer)): 2.95 µM | GI50 (ACHN (renal cancer); repeated testing): 1.66 µM | GI50 (OVCAR-8 (ovarian cancer)): 2.85 µM | GI50 (OVCAR-8 (ovarian cancer); repeated testing): 2.05 µM | GI50 (NCI-H460 (NSCL cancer)): 1.92 µM | GI50 (NCI-H460 (NSCL cancer); repeated testing): 1.66 µM | GI50 (SW-620 (colon cancer)): 2.82 µM | GI50 (SW-620 (colon cancer); repeated testing): 3.23 µM | Growth % of the most sensitive cell line [12]: −48.22% | GI50 (SNB-75 (CNS cancer)): 1.26 µM | GI50 (SNB-75 (CNS cancer); repeated testing): 0.67 µM | GI50 (OVCAR-4 (ovarian cancer)): 2.19 µM | GI50 (OVCAR-4 (ovarian cancer); repeated testing): 1.33 µM | GI50 (MALME-3M (melanoma) [5]): 0.72 µM | GI50 (MALME-3M (melanoma) [5]; repeated testing): 1.05 µM | GI50 (UACC-62 (melanoma)): 0.43 µM | GI50 (UACC-62 (melanoma); repeated testing): 1.59 µM | Growth % of the most sensitive cell line ((melanoma)): −74.12% | GI50 (A498 (renal cancer)): 1.95 µM | GI50 (A498 (renal cancer); repeated testing): 2.11 µM | GI50 (TK-10 (renal cancer)): 5.74 µM | GI50 (TK-10 (renal cancer); repeated testing): 2.16 µM | GI50 (60 cancer cell lines [6]; [13]): 1.95 µM | GI50 (60 cancer cell lines [6]; read-out: GI50 MG_MID, over the cell line panel, repeated testing): 1.7 µM | GI50 (60 cancer cell lines [6]; [14]): 0.16 to 41.4 µM | GI50 (60 cancer cell lines [6]; read-out: GI50 Range (min – max), over the cell line panel, repeated testing): 0.22 to 5.72 µM | CC50 (60 cancer cell lines [6]; [15]): 42.7 µM | CC50 (60 cancer cell lines [6]; read-out: LC50 MG_MID, over the cell line panel, repeated testing): 38 µM | CC50 (60 cancer cell lines [6]; [16]): 4.14 to 92.4 µM | CC50 (60 cancer cell lines [6]; read-out: LC50 Range (min – max), over the cell line panel, repeated testing): 4.93 to 86.6 µM | GI50 (HCC-2998 (colon cancer)): 3.77 µM | GI50 (HCC-2998 (colon cancer); repeated testing): 3.24 µM | GI50 (COLO 205 (colon cancer)): 2.08 µM | GI50 (COLO 205 (colon cancer); repeated testing): 1.68 µM | GI50 (SNB-19 (CNS cancer)): 2.41 µM | GI50 (SNB-19 (CNS cancer); repeated testing): 2.85 µM | GI50 (CCRF-CEM (leukemia)): 3.19 µM | GI50 (CCRF-CEM (leukemia); repeated testing): 1.84 µM | GI50 (KM12 (colon cancer)): 2.25 µM | GI50 (KM12 (colon cancer); repeated testing): 2.51 µM | GI50 (NCI-H522 (NSCL cancer)): 1.96 µM | GI50 (NCI-H522 (NSCL cancer); repeated testing): 2.12 µM | Mean growth % (60 cancer cell lines [7]): 17.75% | GI50 (M14 (melanoma) [8]): 1.25 µM | GI50 (M14 (melanoma) [8]; repeated testing): 1.22 µM | GI50 (SF-295 (CNS cancer) [9]): 1.71 µM | GI50 (SF-295 (CNS cancer) [9]; repeated testing): 1.14 µM | GI50 (DU-145 (prostate cancer)): 0.51 µM | GI50 (DU-145 (prostate cancer); repeated testing): 0.93 µM

COc1cc(C2C3=C(Sc4[nH]c(=O)sc42)C(=O)c2ccccc2C3=O)ccc1OCc1ccccc1 (stereo not shown) [Compound 4e, 11-[4-(Benzyloxy)-3-methoxyphenyl]-3,11-dihydro-2H-benzo[6,7]thiochromeno[2,3-d]-[1,3]thiazole-2,5,10-trione]
GI50 (CAKI-1 (renal cancer)): 17.4 µM | GI50 (SF-539 (CNS cancer)): 16.7 µM | GI50 (HT29 (colon cancer)): 11.2 µM | GI50 (T-47D (breast cancer)): 16.1 µM | TGI MG_MID (60 cancer cell lines [2]): 40.74 µM | GI50 (MCF-7 (breast cancer)): 12.9 µM | GI50 (ACHN (renal cancer)): 17.8 µM | GI50 (OVCAR-8 (ovarian cancer)): 13.9 µM | GI50 (NCI-H460 (NSCL cancer)): 5.39 µM | inhibition at 6.25 µg/mL [4]: 15% | MIC90 [4]: > 6.25 µg/mL | GI50 (SW-620 (colon cancer)): 22.7 µM | GI50 (SNB-75 (CNS cancer)): 7.76 µM | GI50 (OVCAR-4 (ovarian cancer)): 4.48 µM | GI50 (MALME-3M (melanoma) [5]): 7.12 µM | GI50 (UACC-62 (melanoma)): 12.5 µM | GI50 (A498 (renal cancer)): 20.5 µM | GI50 (TK-10 (renal cancer)): 29.7 µM | GI50 (60 cancer cell lines [6]; [13]): 12 µM | GI50 (60 cancer cell lines [6]; [14]): 2.62 to 32.6 µM | CC50 (60 cancer cell lines [6]; [15]): 85.1 µM | CC50 (60 cancer cell lines [6]; [16]): 26.3 to 98.7 µM | GI50 (HCC-2998 (colon cancer)): 16.6 µM | GI50 (COLO 205 (colon cancer)): 10.3 µM | GI50 (SNB-19 (CNS cancer)): 11.3 µM | GI50 (CCRF-CEM (leukemia)): 23.4 µM | GI50 (KM12 (colon cancer)): 16.9 µM | GI50 (NCI-H522 (NSCL cancer)): 15.9 µM | GI50 (M14 (melanoma) [8]): 6.9 µM | GI50 (SF-295 (CNS cancer) [9]): 5.78 µM | GI50 (DU-145 (prostate cancer)): 4.19 µM
